Measurements taken from the NIST ThermoML archive (doi:10.1021/acs.jced.8b00680).
“And” between values parts separate entries of the source, which are not always exact repeats. Identical values can stand only once.

Conditions: Liquid, Ebulliometric method (Recirculating still)

CC(C)CC(C)(C)C [2,2,4-trimethylpentane]
Conditions	vapor or sublimation pressure [kPa]
372.26 K	101.3

CCCCCCCCCCO [decan-1-ol]
Conditions	vapor or sublimation pressure [kPa]
469.23 K	40
469.83 K	40.03
472.98 K	44.4
475.4 K	47.97
476.8 K	50.19
479.42 K	54.07
481.36 K	57.04
484.05 K	61.26
487.9 K	67.43
491.16 K	73.44
492.56 K	76.32
494.46 K	79.92
496.88 K	85.24

CCCCCCCCCC [decane]
Conditions	vapor or sublimation pressure [kPa]
414.08 K	40
414.18 K	40
420.5 K	48.74
425.83 K	57.04
431.14 K	66.32
435.6 K	75.05
439.77 K	83.97
443.51 K	92.72
446.01 K	98.88

CCCCCCCCCCCC [dodecane]
Conditions	vapor or sublimation pressure
453.92 K	40.08 kPa and 40 kPa
456.87 K	43.58 kPa
459.31 K	46.71 kPa
461.72 K	49.93 kPa
465.47 K	55.35 kPa
467.52 K	58.41 kPa
470.69 K	63.63 kPa
474.33 K	69.97 kPa
478.47 K	77.75 kPa

CCO [ethanol]
Conditions	vapor or sublimation pressure [kPa]
351.44 K	101.3

CCCCCCCO [heptan-1-ol]
Conditions	vapor or sublimation pressure [kPa]
419.4 K	40
420.4 K	40.12
423 K	44.2
426.27 K	49.44
430.35 K	56.78
433.75 K	63.5
438.22 K	73.4
441.44 K	81.04
444.34 K	88.14

CCCCCCO [hexan-1-ol]
Conditions	vapor or sublimation pressure [kPa]
402.36 K	40
403.66 K	40.02
407.89 K	48.72
413.31 K	58.84
418.35 K	69.27
421.9 K	77.4
425.15 K	85.63
427.54 K	92.07
429.19 K	99.78

CCCCCCCCC [nonane]
Conditions	vapor or sublimation pressure [kPa]
392.17 K	40
392.77 K	39.96
399.76 K	49.24
404.65 K	58.04
409.14 K	66.68
413.23 K	75.48
417.05 K	84.18
420.83 K	93.72
423.88 K	101.7

CCCCCCCCO [octan-1-ol]
Conditions	vapor or sublimation pressure [kPa]
436.67 K	40
437.67 K	40.08
443.61 K	48.62
445.86 K	52.15
450.45 K	60.03
454.35 K	67.6
457.08 K	74.25
460.31 K	81.52
463.5 K	89.16
466.8 K	97.64

CCCCCO [pentan-1-ol]
Conditions	vapor or sublimation pressure [kPa]
384.45 K	40
384.85 K	40.01
392.76 K	54.41
398.11 K	66.15
400.95 K	72.93
404.59 K	82.75
407.17 K	90.21
410.73 K	101.2

CCCCCCCCCCCCCC [tetradecane]
Conditions	vapor or sublimation pressure [kPa]
489.17 K	40
489.26 K	40.04
491.29 K	42.42
492.53 K	43.8
495.18 K	46.96
496.08 K	48.13
497.96 K	50.5
498.07 K	50.7

CCCCCCCCCCC [undecane]
Conditions	vapor or sublimation pressure [kPa]
434.5 K	40
434.6 K	40.04
438.71 K	45.18
442.2 K	50.04
445.4 K	54.82
448.68 K	60.13
451.59 K	65.09
454.55 K	70.48
458.59 K	78.59
